According to patent publication US7598067B2, “PDEs and uses thereof” (priority 2000, dated 2009):
Where “and” joins values, the source holds several entries; their conditions need not be identical. Equal values may be shown once. Read-outs that look alike come from different tables or passages of the source.

Tests used:
TbPDE2A [1] = target: T1, TbPDE2A (Trypanosoma brucei, UniProt Q9GTN9); assay: Phosphodiesterase assay, recombinant TbPDE2A in yeast lysates; format: biochemical; settings: for effect on TbPDE2A activity in initial screening: 100 μM inhibitor, FIG. 26; for effect on TbPDE2A activity in initial screening / IC50 / IC50 for TbPDE2A (μM): 1 μM cAMP; for IC50 / IC50 for TbPDE2A (μM): full-size TbPDE2A, yeast lysates
Method: Yeast cell lysis. Yeast cells grown to mid- to end-log phase in SC-leu medium were collected, resuspended quickly in an original volume of prewarmed YPD medium and incubated for an additional 3 h at 30° C. in order to maximize protein expression. Cells were then harvested, washed once in water and once in HBBB buffer (Hank's balanced salt solution, containing 50 mM HEPES, pH 7.5). The washed cell pellet was suspended in an equal volume of HBB containing a protease inhibitor cocktail (Complete™, Roche Molecular Biochemicals). […] The cell lysate was clarified by centrifugation for 15 min at 15,000×g.
Phosphodiesterase Assay. […] […] Incubation was at 30° C. for 20 min. […] The precipitates were filtered through GF-C glass fiber fitters and filters were washed 3 times with ice-cold 1 mM NaOH/100 mM NaCl and were then dried and counted in liquid scintillation fluid (4 g/I omnifluor in toluene). All assays were carried out in triplicates and with three independent enzyme preparations. Controls for the efficiency of precipitation of cAMP and of AMP were always included. When assaying yeast cell extracts, control lysates from the PDE deletion strains transfected with empty vector was used as a background control. […] Inhibitors were dissolved in DMSO or ethanol, and the final concentration of the solvent never exceeded 1% in the assays reaction. Incubation times and enzyme concentrations were always adjusted so that less than 30% of the input substrate was hydrolyzed (2-5 μg total protein/100 μl assay). IC50 values were calculated by curve fitting on a four parameter dose-response model with variable slope, using the Prism software package of Graph Pad Inc., San Diego, Calif.

TbPDE2B = TbPDE2B (Trypanosoma brucei, UniProt Q9GQU6); assay: Phosphodiesterase assay, recombinant TbPDE2B expressed in HEK 293 cells; format: biochemical; settings: for inhibition of recombinant TbPDE2B, in words: 1 μM [3H] cAMP, cGMP up to 200 μM
Method: Expression of T. brucei PDE. The ORF sequence for T. brucei PDE was subcloned into the pcDNA 3.1-TOPO vector (Invitrogen) according to the manual (Eukaryotic TOPO TA Cloning, version C) and plasmid DNA purified as described above. Human embryonic kidney 293 (HEK 293) cells were transfected with 12 μg of DNA in 60 μl of GenePORTER Transfection Reagent (Gene Therapy Systems, San Diego, Calif.) in 100-mm dishes and kept at 37° C. in 5% CO2 for 24 h. After this period fresh medium was added, and incubated under the same conditions for an additional 24 h. The same amount of pcDNA vector containing the sequence for the Green Fluorescent Protein (GFP) was transfected under identical conditions as a positive control for expression and as a negative control for PDE activity. Two plates were harvested at a time and homogenized with 1 ml of homogenization buffer containing 40 mM Tris-HCl, pH 7.5; 15 mM benzamidine; 15 mM 2-mercaptoethanol; 1 μg/ml pepstatin A; 1 μg/ml leupeptin and 5 mM EDTA. The cell suspension was immediately subjected to sonication (3×5 s) on ice. One volume of glycerol and 1 mg/ml of bovine serum albumin were added immediately to the homogenate.
Phosphodiesterase assay. […]

[2] = system: total PDE activity of trypanosomal cell extracts; assay: Total PDE activity in trypanosomal cell extracts; format: biochemical, Trypanosoma brucei
Description: Chemical validation of the TbPDE2 family as a potential drug target. One of the novel PDEs of the invention, TbPDE2A, was expressed as a recombinant protein and was characterized in detail (see above). […].

PDE7A = assay: RT-PCR of PDE7A upregulation in CD3/CD28-stimulated CD4+ T cells; format: cell-based, human; settings: 1 hour after stimulation; FIG. 2C
PDE8A = assay: RT-PCR of PDE8A upregulation in CD3/CD28-stimulated CD4+ T cells; format: cell-based, human; settings: after CD3 and CD28 stimulation; FIG. 2C, 2D
Method: Peripheral blood mononuclear cells were isolated from one human buffy coat (50 mL) by centrifugation through a layer of Ficoll-Paque Plus (2000 rpm, 30 min). Cells from the interface were removed and further purified by negative selection. CD4^+ T cells were usually isolated using a mixture of monoclonal antibodies (CD8, CD16, CD20, CD25 and HLADr) and goat anti-mouse IgG conjugated to magnetic beads according to the manufacturers protocol (Dynal, Lake Success, N.Y.). In some cases the CD4^+ T cell isolation kit was used in combination with the CD69 microbead kit (to remove activated cells). The labeled cells were removed by passage through a CS column (Miltenyi Biotec, Auburn, Calif.) placed in a magnetic field. The CD4^+ T cells passing through the column (at least 98% pure as determined by FACS analysis) were resuspended in RPMI/10% FBS/pen/strep/glutamine medium. The cells were stimulated as follows. Plates (Corning, Acton, Mass.) were precoated with goat anti-mouse IgG (10 μg/mL) for 2 hours at 37° C. and then washed with PBS. Cells were added to the plate together with CD3 (0.01 μg/mL) and CD28 (0.1 ug/mL) monoclonal antibodies and were harvested at various time points. The presence of PDE8A protein and RNA in activated CD4^+ T cells was detected by Western blotting and RT-PCR (see example 3). […]

PDEs (Non-selective) = settings: read-out: PDE Selectivity (IC50); cited from earlier work
[3] = system: PDE8A and PDE7A from hut78 cells; assay: PDE activity of monoQ HPLC fractions of hut78 cells, low Km peak; format: biochemical, human; settings: 0.01 μM cAMP; 10 μM rolipram or 100 μM IBMX
Method: Since pure CD4^+ T cells can only be obtained in limited quantities, a human CD4^+ T cell line, hut78, (ATCC, Manassas, Va.), was used to study the activity of PDE8A. Hut78 cells (2×10^8) were resuspended in 20 mM Tris pH 7.5 buffer containing protease inhibitors (Boehringer Mannheim, Indianapolis, Ind.) and sonicated. The supernatant was removed after centrifugation at 15000×g for 10 minutes and applied to a Mono Q column attached to a Rainin Dynamax HPLC system (Ameryville, Calif.). A NaCl gradient (0-0.8M) was passed through the column and 250 uL fractions were collected. The fractions were assayed for activity using either 1 μM or 0.01 μM cAMP as substrate and the indicated concentration of inhibitor (FIG. 5). Western blot analysis was also performed (10 μL/well) using PDE7A or 8A antibodies.

PDE 4 = settings: read-out: PDE Selectivity (IC50); cited from earlier work
[4] = system: endogenous PDE activity from the HEK 293 cells; assay: Endogenous PDE activity from HEK 293 cells; format: biochemical, human; settings: lowest concentration used (10 μM)
Description: Phosphodiesterase assay. […] […]

TbPDE2A [5] = target: T1, TbPDE2A; settings: Table 2, from reference; cited from earlier work
PDE 6 = settings: read-out: PDE Selectivity (IC50); cited from earlier work

T1 sequence (Q9GTN9 entry or part of it): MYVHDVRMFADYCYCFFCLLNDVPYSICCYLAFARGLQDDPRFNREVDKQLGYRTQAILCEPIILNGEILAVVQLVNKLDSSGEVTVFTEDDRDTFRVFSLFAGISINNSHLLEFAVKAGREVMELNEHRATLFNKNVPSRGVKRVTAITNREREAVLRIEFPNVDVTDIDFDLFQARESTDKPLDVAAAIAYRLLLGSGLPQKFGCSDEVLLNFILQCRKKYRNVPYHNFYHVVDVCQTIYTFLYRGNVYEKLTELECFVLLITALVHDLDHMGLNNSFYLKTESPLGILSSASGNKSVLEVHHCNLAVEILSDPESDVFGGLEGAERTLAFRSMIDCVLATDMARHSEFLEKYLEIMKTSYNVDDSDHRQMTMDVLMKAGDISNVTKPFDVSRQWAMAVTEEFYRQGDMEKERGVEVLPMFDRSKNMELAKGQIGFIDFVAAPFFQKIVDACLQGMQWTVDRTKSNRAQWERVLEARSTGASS
TbPDE2B, sequence (Q9GQU6 entry or part of it): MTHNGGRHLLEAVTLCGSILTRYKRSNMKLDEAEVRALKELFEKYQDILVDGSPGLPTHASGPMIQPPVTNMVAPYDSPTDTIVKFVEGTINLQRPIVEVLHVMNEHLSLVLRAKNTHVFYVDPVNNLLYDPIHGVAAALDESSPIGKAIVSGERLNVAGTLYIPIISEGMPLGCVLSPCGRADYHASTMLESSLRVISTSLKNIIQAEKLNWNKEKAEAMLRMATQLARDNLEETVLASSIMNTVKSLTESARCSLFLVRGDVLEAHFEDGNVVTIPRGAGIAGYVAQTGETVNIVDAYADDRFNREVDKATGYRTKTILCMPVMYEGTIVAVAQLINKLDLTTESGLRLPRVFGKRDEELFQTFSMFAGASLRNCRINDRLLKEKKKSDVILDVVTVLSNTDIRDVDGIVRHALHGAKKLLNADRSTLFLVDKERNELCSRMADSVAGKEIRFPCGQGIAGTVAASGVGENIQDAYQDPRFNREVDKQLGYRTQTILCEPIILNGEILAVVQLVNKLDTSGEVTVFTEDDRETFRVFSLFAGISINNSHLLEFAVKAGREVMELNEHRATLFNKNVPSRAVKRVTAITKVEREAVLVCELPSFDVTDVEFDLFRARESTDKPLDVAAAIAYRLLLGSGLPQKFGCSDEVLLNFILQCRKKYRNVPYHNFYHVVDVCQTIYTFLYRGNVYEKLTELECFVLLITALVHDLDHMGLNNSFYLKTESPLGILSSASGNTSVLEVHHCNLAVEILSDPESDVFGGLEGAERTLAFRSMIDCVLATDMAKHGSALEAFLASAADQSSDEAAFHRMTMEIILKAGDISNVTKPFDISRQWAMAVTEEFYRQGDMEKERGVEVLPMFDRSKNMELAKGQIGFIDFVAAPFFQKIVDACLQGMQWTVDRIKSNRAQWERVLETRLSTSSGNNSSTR

COCc1nc2c([nH]1)c(=O)n(C)c(=O)n2CC(C)C [8-methoxymethyl-IBMX]
effect on TbPDE2A activity in initial screening (TbPDE2A [1]): only very little effect

CN(C(=O)CCCOc1ccc2[nH]c(=O)ccc2c1)C1CCCCC1 [Cilostamide, cilostamide]
effect on TbPDE2A activity in initial screening (TbPDE2A [1]): only very little effect | IC50 (TbPDE2A [1]): > 100 µM

CCCCCCC(C(C)O)n1cnc2c(N)ncnc21 (stereo not drawn) [EHNA, erythro-9-[3-(2-hydroxynonyl)]-adenine]
IC50 (TbPDE2B): > 180 µM | inhibition of recombinant TbPDE2B, in words (TbPDE2B): No IC50 could be obtained

CCOC(=O)c1cnc2c(cnn2CC)c1NN=C(C)C [Etazolate, etazolate]
IC50 (TbPDE2B): 127 µM | IC50 (TbPDE2A [1]): 30.3 µM

CCOc1ccc(Cc2nccc3cc(OCC)c(OCC)cc23)cc1OCC [Ethaverine]
total PDE activity [2]: marked, if not complete, reduction | effect on TbPDE2A activity in initial screening (TbPDE2A [1]): significantly more effective as an inhibitor of TbPDE2A than its parent compound papaverine | IC50 (TbPDE2A [1]): 14 µM and 14.2 µM | IC50 for TbPDE2A (μM) (TbPDE2A [1]): low micromolar range

CC(C)(C)n1nc(-c2ccc(Cl)cc2)c2c(N)ncnc21 [PP2]
PDE7A upregulation (PDE7A): reduction of PDE7A upregulation | PDE8A upregulation (PDE8A): greatly reduced

COc1ccc(Cc2nccc3cc(OC)c(OC)cc23)cc1OC [Papaverine, papaverine]
IC50 (TbPDE2B): 304 ± 19 µM | inhibition of recombinant TbPDE2B, in words (TbPDE2B): extremely low sensitivity | IC50 (PDEs (Non-selective)): 5 to 25 µM | effectiveness on TbPDE2A, in words (TbPDE2A [1]): only marginal activity

CC(=O)CCCCn1c(=O)c2c(ncn2C)n(C)c1=O [Pentoxifylline, pentoxifylline]
IC50 (TbPDE2B): > 800 µM | inhibition of recombinant TbPDE2B, in words (TbPDE2B): extremely low sensitivity | IC50 (PDEs (Non-selective)): 45 to 150 µM

COc1ccc(C2CNC(=O)C2)cc1OC1CCCC1 (stereo not drawn) [Rolipram, rolipram]
sensitivity of the PDE activity peak [3]: resistant | IC50 (PDE 4): […] | IC50 (TbPDE2B): > 300 µM | inhibition of recombinant TbPDE2B, in words (TbPDE2B): No inhibition | endogenous PDE activity from the HEK 293 cells [4]: completely abolished | IC50 (TbPDE2A [5]): > 100 µM | effect on TbPDE2A activity in initial screening (TbPDE2A [1]): no appreciable activity | IC50 (TbPDE2A [1]): > 100 µM

CCCc1nn(C)c2c(=O)[nH]c(-c3cc(S(=O)(=O)N4CCN(C)CC4)ccc3OCC)nc12 [Sildenafil, sildenafil]
total PDE activity [2]: marked, if not complete, reduction | IC50 (TbPDE2B): > 100 µM | inhibition of recombinant TbPDE2B, in words (TbPDE2B): No IC50 could be obtained | IC50 (TbPDE2A [1]): 9.4 µM | IC50 for TbPDE2A (μM) (TbPDE2A [1]): low micromolar range

Cn1c(=O)c2[nH]cnc2n(C)c1=O [Theophylline, theophylline]
effectiveness on TbPDE2A, in words (TbPDE2A [1]): not effective | IC50 (TbPDE2A [1]): > 100 µM

COc1cc2c(cc1OC)-c1c/c(=N\c3c(C)cc(C)cc3C)n(C)c(=O)n1CC2 [Trequinsin]
total PDE activity [2]: marked, if not complete, reduction | IC50 (TbPDE2A [1]): 5.4 µM | IC50 for TbPDE2A (μM) (TbPDE2A [1]): low micromolar range

CCOC(=O)C1=C[C@]2(CC)CCCN3CCc4c(n1c1ccccc41)[C@@H]32 [Vinpocetine, vinpocetine]
effect on TbPDE2A activity in initial screening (TbPDE2A [1]): only very little effect | IC50 (TbPDE2A [1]): > 100 µM

CCCOc1ccccc1-c1nc2nn[nH]c2c(=O)[nH]1 [Zaprinast, zaprinast]
IC50 (PDE 6): 0.15 µM | IC50 (TbPDE2B): > 50 µM | inhibition of recombinant TbPDE2B, in words (TbPDE2B): No IC50 could be obtained | IC50 (TbPDE2A [5]): 42.5 µM | effect on TbPDE2A activity in initial screening (TbPDE2A [1]): only very little effect | IC50 (TbPDE2A [1]): 42.4 µM

Cc1[nH]c(=O)c(C#N)cc1-c1ccncc1 [milrinone]
effect on TbPDE2A activity in initial screening (TbPDE2A [1]): only very little effect

Ro 20-1724
IC50 (PDE 4): 2 µM | inhibition of recombinant TbPDE2B, in words (TbPDE2B): No inhibition | IC50 (TbPDE2B; Substrate concentration 1 μM [3H]-cAMP, read-out: TbPDE2B IC50 (μM) (n = 3)): > 300 µM | endogenous PDE activity from the HEK 293 cells [4]: completely abolished
